Assay [1] addresses T1, hPR (Homo sapiens, UniProt P06401).
T1 sequence (P06401 679-933 limits assumed): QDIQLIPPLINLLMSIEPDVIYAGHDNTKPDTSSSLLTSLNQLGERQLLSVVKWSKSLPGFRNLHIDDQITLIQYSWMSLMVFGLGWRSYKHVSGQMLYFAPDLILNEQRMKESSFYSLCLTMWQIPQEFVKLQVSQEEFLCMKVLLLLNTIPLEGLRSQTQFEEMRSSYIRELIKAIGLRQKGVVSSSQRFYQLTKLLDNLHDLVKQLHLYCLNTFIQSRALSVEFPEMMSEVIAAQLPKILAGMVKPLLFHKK
The assay is described as follows: T47D alkaline phosphatase assay, antagonist mode. In kind it is cell-based. To be noted: T47D human breast cancer cells; for Emax: read-out: hPR Antagonists T47D Cells Eff. (%); for IC50: read-out: hPR Antagonists T47D Cells IC50.
Text: (§1) The potential tissue-selectivities of the selected analogues were examined by using the T47D alkaline phosphatase assay that was developed from human breast cancer cells with endogenous PRs.

A further assay concerns the target T2, hPR-A (Homo sapiens, UniProt P06401).
T2 sequence (P06401 1-769 isoform P06401-2): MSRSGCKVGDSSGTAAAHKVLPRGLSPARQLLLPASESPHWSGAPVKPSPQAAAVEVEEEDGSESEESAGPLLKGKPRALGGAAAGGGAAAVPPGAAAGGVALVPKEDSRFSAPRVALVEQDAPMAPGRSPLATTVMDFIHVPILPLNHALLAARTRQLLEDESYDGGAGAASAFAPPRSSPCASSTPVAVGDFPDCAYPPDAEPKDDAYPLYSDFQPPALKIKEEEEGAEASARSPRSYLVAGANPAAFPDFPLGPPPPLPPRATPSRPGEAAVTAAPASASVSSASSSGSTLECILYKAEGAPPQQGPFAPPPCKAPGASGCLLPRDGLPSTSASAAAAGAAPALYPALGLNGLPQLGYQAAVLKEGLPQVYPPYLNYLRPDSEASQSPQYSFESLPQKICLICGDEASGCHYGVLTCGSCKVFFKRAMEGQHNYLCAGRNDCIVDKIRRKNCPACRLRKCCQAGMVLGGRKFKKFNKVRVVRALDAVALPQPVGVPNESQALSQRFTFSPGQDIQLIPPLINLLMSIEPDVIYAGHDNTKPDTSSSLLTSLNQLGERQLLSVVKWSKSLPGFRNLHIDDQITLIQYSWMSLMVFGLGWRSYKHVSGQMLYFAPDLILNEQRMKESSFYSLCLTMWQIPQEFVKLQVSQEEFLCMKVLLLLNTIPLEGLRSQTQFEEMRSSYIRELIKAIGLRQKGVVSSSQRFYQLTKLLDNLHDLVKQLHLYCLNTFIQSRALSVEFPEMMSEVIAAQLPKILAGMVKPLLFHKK
The experiment in a line: Receptor competitive binding assay. The following applies: read-out: PR binding Ki.

The target in assay [2] is T1, hPR. The experiment in a line: T47D alkaline phosphatase assay, agonist mode. Format: cell-based. The following applies: T47D human breast cancer cells; for Emax: T47D, read-out: hPR Agonist T47D cells Eff. (%).
Text: as §1
For assay [3], the target named is T3, hPR (Homo sapiens, UniProt P06401).
T3 sequence (P06401 1-933): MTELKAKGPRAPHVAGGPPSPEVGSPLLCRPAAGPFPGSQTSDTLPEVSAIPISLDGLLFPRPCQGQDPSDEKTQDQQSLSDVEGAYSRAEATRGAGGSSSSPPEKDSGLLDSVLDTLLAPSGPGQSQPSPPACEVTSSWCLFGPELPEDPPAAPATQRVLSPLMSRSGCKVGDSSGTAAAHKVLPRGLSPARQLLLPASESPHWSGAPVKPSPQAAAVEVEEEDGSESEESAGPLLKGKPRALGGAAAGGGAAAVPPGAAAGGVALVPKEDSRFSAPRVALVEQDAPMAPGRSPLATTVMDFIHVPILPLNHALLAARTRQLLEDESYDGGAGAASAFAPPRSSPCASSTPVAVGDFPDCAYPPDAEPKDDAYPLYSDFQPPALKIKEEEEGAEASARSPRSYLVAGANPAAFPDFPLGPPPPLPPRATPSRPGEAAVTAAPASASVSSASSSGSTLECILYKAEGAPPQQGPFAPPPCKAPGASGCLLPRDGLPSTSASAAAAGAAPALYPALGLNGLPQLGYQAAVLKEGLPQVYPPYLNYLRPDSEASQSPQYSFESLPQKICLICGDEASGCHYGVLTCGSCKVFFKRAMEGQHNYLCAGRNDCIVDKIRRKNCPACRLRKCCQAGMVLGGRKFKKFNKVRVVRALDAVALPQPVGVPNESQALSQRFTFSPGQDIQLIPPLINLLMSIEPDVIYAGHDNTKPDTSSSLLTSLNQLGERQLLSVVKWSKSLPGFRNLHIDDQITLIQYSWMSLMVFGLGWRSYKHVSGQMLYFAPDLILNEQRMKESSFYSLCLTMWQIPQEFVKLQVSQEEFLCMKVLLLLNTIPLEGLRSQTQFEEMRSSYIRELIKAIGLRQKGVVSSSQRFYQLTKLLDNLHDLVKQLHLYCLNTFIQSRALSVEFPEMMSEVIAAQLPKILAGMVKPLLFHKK
The experiment in a line: hPR cotransfection assay in CV-1 cells, agonist mode. Format: cell-based. To be noted: for Emax: CV-1, CV-1 cells, read-out: hPR Agonist CV-1 Cells Eff. (%); for Emax / hPR Agonist CV-1 Cells Eff. (%): relative to maximal response of progesterone as 100%.
Experimental: (§2) Antagonist efficacy was determined as a function (%) of maximal inhibition of a reference agonist at EC50 concentration. All the cotransfection experiments were carried out in 96-well plates by automation (Beckman Biomomek automated workstation).

The target of assay [4] is T3, hPR. The assay is described as follows: hPR cotransfection assay in CV-1 cells, antagonist mode. In kind it is cell-based. The following applies: for Emax: CV-1, CV-1 cells, read-out: hPR Antagonist CV-1 Cells Eff. (%); for Emax / hPR Antagonist CV-1 Cells Eff. (%): maximal inhibition of reference agonist at EC50 concentration; for IC50 / hPR Antagonist CV-1 Cells Eff. (%): CV-1 cells.
Experimental: as §2

The test system of assay [5] is ovariectomized female rats. The experiment in a line: Multi-endpoint adult rat model, uterus/breast tissue-selectivity. In kind it is in vivo. The following applies: ratio of relative efficacy to MPA in uterus verse in breast tissue at the same highest dose tested; estrone-treated ovariectomized rats, three days.
Text: In this assay, advantage is taken of the fact that in the uterus, estrogens induce a proliferation and increase in the epithelial cell height and uterine wet weight, which can be antagonized by progestins. In the breast, estrogens induce a proliferation of the ductal network while progestins stimulate the growth of the lobular-alveolar end buds, which grow from the distal end of the ducts. […] Proliferating cells or inhibition of proliferating cells were quantitated either by measurements of cell height in sectioned and stained tissue samples or, in the case of the breast, immuno-histochemically labeled Brdu incorporated nuclei.
For another assay, the system named is immature rabbits. The experiment in a line: McPhail (Clauberg) rabbit assay of progestational activity. In kind it is in vivo. The following applies: Oryctolagus cuniculus; estradiol-primed immature rabbits; glandular changes of the uterus; read-out: potency (MAD in mg/kg), minimum active dose. The method, then:
The superiority of the 7,9-difluoro analogue compounds of the present invention was further characterized utilizing the McPhail rabbit model according to the following illustrative Examples. The Clauberg or McPhail assay is a classic assay utilizing rabbits to measure progestational activity. […] In this assay, immature rabbits are treated initially with estradiol, which induces growth in the uterus. This is followed by a progestin, which causes a large change in the glandular content of the uterus. It is this change in the glandular component which is a measure of the progestational activity of a progestin. The measurement of these glandular changes is carried out histologically using stained sections of the uterus. The in vivo comparison between the new 7,9-difluoro compounds and analogues with substitution patterns different from 7,9-difluoro (U.S. Pat. Nos. 5,693,646 and 5,696,127) is tabulated in Tables 7 and 8. The in vivo potency of the progestins is presented as the minimum active dose (MAD).

Where [6] appears, read: CV-1 cells, read-out: hPR Agonist CV-1 Cells EC50.
Setting [7] is: Tables 3 and 4, values without footnote, read-out: hPR agonist potencies (EC50 in nM) in the cotransfection assay.

Usually IC50 stands for the concentration that inhibits the measured activity by half. By Ki is commonly meant a dissociation constant, usually derived from enzyme kinetics or from competition with a known ligand. Broadly, the EC50 is the concentration giving half of the maximal effect.

The structures appear in SMILES notation.

Take `COC1Oc2c(F)cc(F)cc2-c2ccc3c(c21)C(C)=CC(C)(C)N3` (racemic) [Compound 32, (±)-7,9-difluoro-5-methoxy-1,2-dihydro-2,2,4-trimethyl-5H-chromeno[3,4-f]quinoline]: the Emax on hPR [1] was 35%; on hPR [2] it was 36%; on hPR [3], less than 20%; on hPR [4] it was 76%. Further, the IC50 stood at 0.25 µM on hPR [1] and 0.075 µM on hPR [4]. Moreover, the inhibition constant (Ki) on hPR-A stood at 0.037 µM. Further, the EC50 is 0.315 µM at hPR [2] and greater than 10000 nM at hPR [3] (setting [6]).
Turning to `CC1=CC(C)(C)Nc2ccc3c(c21)/C(=C/c1cccc(F)c1)Oc1ccc(F)cc1-3` [Formula II X=9-F 3-F-Ph, reference compound], the EC50 on hPR [3] (setting [7]) worked out at 7 nM. The uterus/breast tissue-selectivity in assay [5] amounted to 2.2.
For the molecule `CC1=CC(C)(C)Nc2ccc3c(c21)C(CC(=O)c1ccccc1)Oc1c(F)cc(F)cc1-3` (racemic) [Compound 45, (±)-7,9-difluoro-5-(2-oxo-2-phenylethyl)-1,2-dihydro-2,2,4-trimethyl-5H-chromeno[3,4-f]quinoline], the Emax at hPR [1] is less than 20%; on hPR [2], 77%; on hPR [3] it was less than 20%; at hPR [4] it was 79%. Moreover, the IC50 on hPR [1] is greater than 10 µM; at hPR [4], 0.042 µM. At hPR-A, the Ki is 0.018 µM. Moreover, the concentration giving a half-maximal response (EC50) on hPR [2] was 0.195 µM; at hPR [3] (setting [6]) it was greater than 10000 nM.
As for `CC1=CC(C)(C)Nc2ccc3c(c21)/C(=C/c1ccccc1F)Oc1c(F)cc(F)cc1-3` [Compound 12, 7,9-difluoro-5(Z)-(2-fluorobenzylidene)-1,2-dihydro-2,2,4-trimethyl-5H-chromeno[3,4-f]quinoline], the minimal effective dose in the assay on immature rabbits is 0.5 mg/kg. Also, the EC50 on hPR [3] (setting [7]) worked out at 2.55 nM.
For `C#CCC1Oc2c(F)cc(F)cc2-c2ccc3c(c21)C(C)=CC(C)(C)N3` (racemic) [Compound 71, (±)-7,9-difluoro-5-(2-propynyl)-1,2-dihydro-2,2,4-trimethyl-5H-chromeno[3,4-f]quinoline], in the assay with immature rabbits, the minimal effective dose is less than 0.5 mg/kg.
Same read-out and setting: next, `CC1=CC(C)(C)Nc2ccc3c(c21)C(c1ccc(Cl)c(C)c1)Oc1ccc(F)cc1-3` (centres unmarked) [Formula I X=9-F 4-Cl-3-Me-Ph, reference compound]: 1 mg/kg.
As to `C#C[C@]1(O)CC[C@H]2[C@@H]3CCC4=CC(=O)CC[C@@H]4[C@H]3C(=C)C[C@@]21CC` [3-ketodesogestrel, reference compound], at hPR [1], the “hPR Antagonists T47D Cells Eff. (%)” value was “na (na = not active (i.e. efficacy of <20 and potency of >10,000))”; the IC50 was greater than 10 µM. Moreover, the inhibitory constant (Ki) on hPR-A is 0.0003 µM. In addition, at hPR [2], the EC50 was 0.0002 µM and the “hPR Agonist T47D cells Eff. (%)” value is recorded as 94%. Further, the EC50 at hPR [3] (setting [6]) was 0.1 nM. The “hPR Agonist CV-1 Cells Eff. (%)” value at hPR [3] (CV-1 cells) came out at 190%. In addition, at hPR [4], the IC50 was greater than 10 µM; the “hPR Antagonist CV-1 Cells Eff. (%)” value is “na (na = not active (i.e. efficacy of <20 and potency of >10,000))”.
For the molecule `CC1=CC(C)(C)Nc2ccc3c(c21)C(c1ccc(Cl)c(C)c1)Oc1c(F)cc(F)cc1-3` (single isomer, unassigned; (+)) [Compound 39, (+)-7,9-difluoro-5-(4-chloro-3-methylphenyl)-1,2-dihydro-2,2,4-trimethyl-5H-chromeno[3,4-f]quinoline], on hPR [1], the Emax was found to be 29% and the IC50 turned out to be 4.1 µM. For the same molecule, at hPR [2], the EC50 is greater than 10 µM; the “hPR Agonist T47D cells Eff. (%)” value is “na (na = not active (i.e. efficacy of <20 and potency of >10,000))”. Also, the EC50 at hPR [3] (setting [6]) amounted to 28 nM. For the same molecule, the “hPR Agonist CV-1 Cells Eff. (%)” value on hPR [3] (CV-1 cells) is given as 26%. Besides, at hPR [4], inhibition was half-maximal at 0.024 µM (IC50) and the “hPR Antagonist CV-1 Cells Eff. (%)” value is recorded as 62%.
For the molecule `CC#CC1Oc2c(F)cc(F)cc2-c2ccc3c(c21)C(C)=CC(C)(C)N3` (single isomer, unassigned; (-)) [Compound 75, (−)-7,9-difluoro-5-(1-propynyl)-1,2-dihydro-2,2,4-trimethyl-5H-chromeno[3,4-f]quinoline], the minimal effective dose in the assay with immature rabbits was less than 0.5 mg/kg. Also, the uterus/breast tissue-selectivity in assay [5] is 4.2.
Consider `CC1=CC(C)(C)Nc2ccc3c(c21)/C(=C/C#N)Oc1c(F)cc(F)cc1-3` [Compound 24, 7,9-difluoro-5(Z)-cyanomethylidene-1,2-dihydro-2,2,4-trimethyl-5H-chromeno[3,4-f]quinoline], for which the Emax was 26% at hPR [1], 72% at hPR [2], 52% at hPR [3] and less than 20% at hPR [4]. In addition, the results for the IC50 at hPR [1] and against hPR [4] were 0.83 µM and greater than 10 µM, respectively. In addition, the Ki at hPR-A is 0.058 µM. In addition, the EC50 at hPR [2] came to 0.079 µM; at hPR [3] (setting [6]) it was 9.4 nM.
Turning to `CC1=CC(C)(C)Nc2ccc3c(c21)C(c1cc2ccccc2s1)Oc1c(F)cc(F)cc1-3` (single isomer, unassigned; (-)) [Compound 64, (−)-7,9-difluoro-5-(benzo[b]thien-2-yl)-1,2-dihydro-2,2,4-trimethyl-5H-chromeno[3,4-f]quinoline], the minimal effective dose in the assay on immature rabbits was 0.25 mg/kg. Besides, the uterus/breast tissue-selectivity in assay [5] is listed as 2.8.
As to `CC1=CC(C)(C)Nc2ccc3c(c21)C(c1cccc(C(F)(F)F)c1)Oc1ccccc1-3` (centres unmarked) [Formula I X=H 3-CF3-Ph, reference compound], in assay [5], the uterus/breast tissue-selectivity turned out to be 3.5.
The same measure, in the same setting: the result for `CC1=CC(C)(C)Nc2ccc3c(c21)C(c1ccc(Cl)cc1)Oc1ccccc1-3` (centres unmarked) [Formula I X=H 4-Cl-Ph, reference compound] reads 1.5.

These data come from US7163946B2 (Ligand Pharmaceuticals Incorporated, priority 2002, dated 2007).
